In series [1] the test system is cysteine- or lysine-containing peptide. In words: In chemico skin sensitization: Direct Peptide Reactivity Assay (DPRA, OECD 442C). The following applies: for DPRA Prediction: cysteine 1:10/lysine 1:50 prediction model.
Description: The direct peptide reactivity assay (DPRA) is an in chemico method which quantified the remaining concentration of cysteine- or lysine-containing peptide after 24 h incubation with the test chemical at 25 °C. Relative peptide concentration was measured by HPLC (Waters, Milford, MA, USA) with gradient elution and UV detection (220 nm). […] This model allowed to classify the test chemical to one of four reactivity classes used to support the discrimination between sensitisers and non-sensitisers.
Series [2] deals with 3D human epidermis tissue model (SkinEthic RHE). The experiment in a line: Transepidermal measurement by reconstructed human epidermis tissue model. It is filed as in vitro ADME. The following applies: 100 μL containing 100 μM CPPAIF, of exposure (method and legend: 1 h), HPLC, mean ± SD of three. On the procedure:
3D human epidermis tissue model (SkinEthic™ RHE, SkinEthics, Lyon, France) and two kinds of CPPAIF-containing emulsion systems (water-in-oil emulsion (W/O) and oil-in-water emulsion (O/W)) were prepared for the transepidermal measurements. […] After treatment liquid beneath the model was collected for HPLC quantification. Transepidermal rate was calculated by measuring the amount of CPPAIF in medium beneath the 3D model by HPLC ((concentration of the beneath liquid/concentration of the topical exposure) × 100).
Figure 8 Transepidermal degree of formulated CPPAIF in SkinEthic^TM RHE model. All 3D reconstructed human epidermis tissues were incubated with growth medium for 2 h, then 0.1 mL formulated CPPAIF (0.1 mM) emulsions were added to the top of the tissues and incubated for 1 h. After treatment the liquid beneath the 3D skin model was collected for HPLC quantification. Transepidermal degree was calculated by measuring the amount of CPPAIF in the liquid beneath the 3D skin model using HPLC. ** p < 0.01 versus the W/O formulation group.

The test system of series [3] is Raw264.7 macrophage cells. It is filed as cell-based. The following applies: 1 µM. On the procedure: In this experiment, macrophage (Raw264.7) cells were seeded in 96-well plates (5 × 10^5 cells/mL) and allowed to attach overnight. After attachment, cells were incubated with various concentrations of CPPAIF for 1 h and followed by stimulation with 1 μg/mL of LPS (lipopolysaccharide). No LPS-added cells were considered as control groups. After incubation, the amount of TNF-α and IL-6 in the medium were analyzed by enzyme linked immunosorbent assay (# KHC3011 and #EH2IL6, Thermo Fisher, Waltham, MA, USA). Cell viability was measured by AlamarBlue cell viability assay (BUF012B, Bio-Rad, Hercules, CA, USA).
Figure 5 Anti-inflammation activity of CPPAIF. Raw264.7 macrophage cells were seeded in 96-well plates (5 × 10^5 cells/mL) and allowed to attach overnight. After attachment, the cells were incubated with various concentrations of CPPAIF for 1 h followed by stimulation with 1 μg/mL of LPS. The control group was not treated with LPS and its cytokine secretion was set as 100% (mock). The amounts of TNFα (A) and IL-6 (B) in the medium were analyzed by ELISA. Cell viability was measured by AlamarBlue cell viability assay. *** p < 0.001 versus the control group.

For series [4], the system named is SkinEthic RHE 3D reconstructed human epidermis tissue model. In words: In vitro skin irritation test (OECD 439). To be noted: 1 mM.
For the next series, the system named is RBL-2H3 mast cells. The experiment in a line: Mast cell degranulation assay (β-hexosaminidase release). It is filed as cell-based, rat. To be noted: under 10 μM (0, 0.1, 1, 2, 5, 10 μM); PC A23187 set as 100%. On the procedure:
Inhibitory effects on release of β-hexosaminidase in RBL-2H3 (rat-basophilic leukemia cell line) were evaluated by a cell degranulation assay. Briefly, 0.2 mL of 5 × 10^5 cells/mL RBL-2H3 cells were seed in 24-well plates (in Minimum Essential Medium (MEM) containing 10% Fetal Bovine Serum (FBS), streptomycin (100 µg/mL) and penicillin (100 units/mL)) and sensitized with anti-DNP IgE (0.45 µg/mL). These cells were washed with Siraganian buffer (5 mM KCl, 0.4 mM MgCl2, 119 mM NaCl, 25 mM piperazine-N,N 2-bis(2-ethane sulfonic acid (PIPES), and 40 mM NaOH, pH 7.2) with glucose, 1 mM CaCl2, and 0.1% bovine serum albumin (BSA). After washing, these cell were incubated in 160 µL of the PBS for 10 min at 37 °C and then 20 µL of test sample solution or calcimycin (final 1 mM) was added and further incubated for 10 min. The plate was cooling on ice for 10 min to stop reaction. 50 µL of supernatant was transferred to 96-well plate and added with 50 µL of substrate (1 mM p-nitrophenyl N-acetyl-β-D-glucosaminide) in 0.1 M citrate buffer (pH 4.5) at 37 °C for 2.5 h. The reaction was stopped by adding 200 µL of carbonate-bicarbonate buffer (0.1 M, pH 10.0). The value of A405 was measured with a microplate reader.
Figure 6 Sensitization test of CPPAIF. The sensitization of CPPAIF was evaluated by mast cell degranulation assay. […]

Series [5] can be described thus: Stability of CPPAIF in W/O and O/W emulsions (HPLC). It is filed as physicochemical. To be noted: 0.1 mM CPPAIF.
The test system of the next series is HaCaT cells. The experiment in a line: Internalization of TMR-CPPAIF in human keratinocytes (confocal microscopy). It is filed as cell-based. The following applies: 20 µM, 37 °C, 30 min, confocal laser-scanning microscopy. The protocol:
Confocal Laser-scanning Microscopy (CLSM, Zeiss Cell Observer-Z1, Baden-Württemberg, Germany) was performed to assess distribution of TMR-labeled CPPAIF (tetramethylrhodamine-[…], synthesized by Kelowna International Scientific, Taipei, Taiwan) in human keratinocytes, HaCaT. First, apply a layer of type I collagen on a glass cover slip, dry and sterilize the cover slip with UV light. Then, culture the HaCaT cells ([…] per slip) on the coverslip for 16 h. The attached HaCaT cells were cultured with 20 μM of the TMR- CPPAIF for 30 min, observed with CLSM (63× oil-immersion objective lens), and photographed under same exposure conditions.
Figure 7 Internalization of TMR-CPPAIF. HaCaT cells (1 × 10^3) were seeded on collagen I coated cover slide and incubated at 37 °C for 16 h. The cells were then incubatd with 20 μM of TMR-CPPAIF at 37 °C for 30 min. After washing and fixing, the cells were mounted and monitored by confocal microscopy. Red: TMR; Blue: nuclear staining with DAPI. (Magnification: 63×).

The mark [6] stands for this setting: test item 100 mM, 24 h, 25 °C, HPLC, UV 220 nm.

Where no end group is shown, it is not given here.

What is called cell viability is the share of living cells, or the viability signal relative to a control. Read a high cell viability as better survival.

Take `OCCOc1ccccc1` [Phenoxyethanol, phenoxyethanol]: in series [1] (setting [6]), the “Cysteine Depletion” value turned out to be 1.38%; the “Lysine Depletion” value is reported as −0.25%; the “Mean of Cysteine and Lysine % Depletion” value came to 0.56%. For the same compound, the “DPRA Prediction” value in series [1] (test item 100 mM) is “Non-sensitiser”.

Regarding NYRWRCKNQN [CPPAIF], the “Transepidermal degree ((concentration in the beneath liquid/concentration in the topical exposure) × 100)” value is on record as 28.4 ± 1.7% in series [2] (O/W formulation) and 41.4 ± 3.6% in series [2] (W/O formulation). The cell viability in series [3] came to 85.2 ± 4.25%. Also, in series [1] (test item 0.1 mM), the “DPRA Prediction” value is given as “Non-sensitiser”. Also, in series [4], the “skin irritation classification of OECD 439” value was “did not cause skin irritation (no category)”. Besides, the “mast cell degranulation release (β-hexosaminidase)” value in the series with RBL-2H3 mast cells is reported as “did not induce any mast cell degranulation release”. The “stability of CPPAIF in emulsion compositions” value in series [5] is recorded as “did not influence stability”.

For the compound “tetramethylrhodamine-NYRWRCKNQN [TMR-CPPAIF, tetramethylrhodamine-labeled CPPAIF]”, the “internalization into cells (TMR signal)” value in the series with HaCaT cells is given as “internalized into the cells”.
